Measured values as given in article PMC10580953, “In vitro and intracellular activities of novel thiopeptide derivatives against macrolide-susceptible and macrolide-resistant Mycobacterium avium complex” (Microbiology Spectrum, 2023).
Values after ≈ are worked out from the molar mass of the structure shown. “Also recorded” adds a separate entry of the source.

Assays:
[1] = test system: M. avium ATCC 700898; details: for drug-drug interaction with CLR: synergism FICI ≤0.5, additive 0.5 < FICI ≤ 1, indifferent 1 < FICI ≤ 4, antagonistic FICI >4
Description: (§1) To evaluate the efficacy of the combination of agent A and agent B, a fractional inhibitory concentration (FIC) index was calculated as follows: FICI = (FIC of agent A) + (FIC of agent B) = (MIC of agent A in combination/MIC of agent A alone) + (MIC of agent B in combination/MIC of agent B alone). Synergism is defined as FICI ≤0.5, additive as 0.5 < FICI ≤ 1, indifferent as 1 < FICI ≤ 4, and antagonistic as FICI >4. The cultured bacteria were diluted to a 0.005 OD600 in 7H9 broth containing 5% OADC, and the antimicrobial agents were prepared by serial dilutions to a final concentration of 0.03–4 μg/mL. For the evaluation of inhibitory concentrations, the plates were incubated at 37°C for 5–7 d. Then, MIC values were assessed by REMA, and the FICI was calculated.

[2] = test system: M. intracellulare ATCC 13950; details: for drug-drug interaction with CLR: synergism FICI ≤0.5, additive 0.5 < FICI ≤ 1, indifferent 1 < FICI ≤ 4, antagonistic FICI >4
Description: as §1

[3] = test system: MAC in murine BMDMs; test: Intracellular anti-MAC activity in infected BMDMs, summary statements for MAC; assay type: cell-based, Mycobacterium avium complex; details: for intracellular activity in BMDMs infected with macrolide-resistant MAC clinical isolates: 10 µg/mL, 72 h (Fig. 5 and 6)
Description: (§2) BMDMs were obtained from 6-week-old female BALB/c mice. Bone marrow cells were differentiated into BMDMs using Dulbecco’s Modified Eagle Medium (Biowest) supplemented with 10% fetal bovine serum (Biowest) and 10% L929 cell supernatant as previously described ([58]).
(§3) BMDMs were seeded at 4 × 10^5 cells/mL in a 48-well plate and incubated overnight at 37°C. MAC strains were infected at a multiplicity of infection of 3 for 4 h and washed with DPBS twice. The cells were then cultured in the absence or presence of drugs in triplicate wells for 72 h. After incubation, the cells were lysed with 0.05% Triton X-100, and the cell lysates serially diluted with DPBS were spotted on 7H10 agar plates supplemented with OADC to count the number of viable bacteria. Colonies were enumerated after 7 d of incubation at 37°C, and the values are reported as the mean CFU ± standard deviation (SD) per mL. All experiments were repeated at least three times independently.

[4] = test system: macrolide-resistant M. avium; test: MIC by REMA, macrolide-resistant M. avium strains
Description: (§4) Reference strains were purchased from the American Type Culture Collection (ATCC; Manassas, VA, USA). All clinical MAC isolates, including macrolide-susceptible and macrolide-resistant strains, were kindly provided by Samsung Medical Center (SMC; Seoul, South Korea) and Asan Medical Center (AMC; Seoul, South Korea). All strains were cultivated in Middlebrook 7H9 liquid broth (Difco Laboratories, Detroit, MI) supplemented with 10% oleic acid-albumin-dextrose-catalase (OADC) or plated on Middlebrook 7H10 agar (Difco Laboratories) with 10% OADC enrichment at 37°C.
(§5) The MICs of all the reagents were determined using the REMA method based on guidelines by the Clinical and Laboratory Standards Institute ([57]). […] The cultures were diluted to an OD600 = 0.001 in 7H9 broth with 5% OADC. […] Two controls (broth only and bacteria only) were incubated to check for other contamination (broth only) and the growth of tested bacteria (bacteria only).
(§6) PCR amplification and sequencing for CLR were based on 23S rRNA. The primers and PCR conditions were as reported previously ([59]). PCR was carried out in a final volume of 20 µL and contained EzPCR Basic 5 × premix (ELPIS, Daejeon, South Korea), 13 µL of sterile dH2O, 1 µL of each forward and reverse primer, and 1 µL of template DNA. The PCR products were run on 1% agarose gels and purified using a NEXprep Gel/PCR Purification Mini Kit (Geneslabs, Gyeonggi, South Korea) for DNA cleanup. Purified PCR products were sequenced by Sanger sequencing in Bionics (Seoul, South Korea) with their gene-specific forward and reverse primers. Sequences obtained from Bionics were subjected to BLAST searches to compare nucleotide sequences with reference strains.

[5] = test system: M. avium; test: MIC by resazurin microtiter assay (REMA), M. avium strains
Description: (§7) Reference strains were purchased from the American Type Culture Collection (ATCC; Manassas, VA, USA). […] All strains were cultivated in Middlebrook 7H9 liquid broth (Difco Laboratories, Detroit, MI) supplemented with 10% oleic acid-albumin-dextrose-catalase (OADC) or plated on Middlebrook 7H10 agar (Difco Laboratories) with 10% OADC enrichment at 37°C.
as §5

[6] = test system: macrolide-resistant M. intracellulare; test: MIC by REMA, macrolide-resistant M. intracellulare strains; details: Mycobacterium intracellulare
Description: as §4, §5, §6

[7] = test system: M. intracellulare; test: MIC by resazurin microtiter assay (REMA), M. intracellulare strains
Description: as §7, §5

[8] = Aqueous kinetic solubility; assay type: physicochemical; details: for solubility at 2 h: aqueous buffer, kinetic from dmso stock, free form, deionized water pH 7.4, 1% DMSO; for Fold increase, Free form: solubility of free form compared to MP2; for solubility: thermodynamic from solid, HCl salt in deionized water
Description: The aqueous kinetic solubility was determined by preparing a 20 mM DMSO stock solution of test compounds and incubating an aliquot of this solution in deionized water at pH 7.4 to set a 1% final concentration of DMSO. In the case of HCl salt compounds, 1–2 mg of compound was weighed and dissolved in deionized water to yield an approximately 10 mg/mL solution. After initial mixing using brief vortexing and sonication, samples were equilibrated by shaking for 2 h at room temperature. Suspensions or solutions with visible particles were filtered through 0.22 µm PVDF membrane filters. The dissolved drug concentration was analyzed using UPLC-MS. To determine the solubility of the HCl salt, 1 mg of compound was weighed into a 2 mL glass tube, and a fixed volume of deionized water was added to yield an approximately 10 mg/mL solution. The solution was equilibrated by shaking for 24 h at room temperature. After equilibration, the vials were visually examined. If a clear solution was obtained, solubility was reported as >mg/mL.

[9] = test system: M. avium in murine BMDMs; test: Intracellular anti-MAC activity in infected BMDMs, M. avium; assay type: cell-based, Mycobacterium avium
Description: as §2, §3

[10] = test system: macrolide-resistant M. avium clinical isolates in BMDMs; test: Intracellular activity in BMDMs, macrolide-resistant M. avium clinical isolates; assay type: cell-based, Mycobacterium avium; details: five macrolide-resistant M. avium clinical isolates, 10 µg/mL, 72 h (Fig. 5)
Description: as §2, §3

[11] = Mycobacterium avium, M. avium (SMC#420), 23S rRNA A2058/A2059 C/A
[12] = Mycobacterium avium, M. avium (SMC#422), 23S rRNA A2058/A2059 A/G
[13] = Mycobacterium avium, M. avium (SMC#1213), 23S rRNA A2058/A2059 T/A
[14] = Mycobacterium avium, ATCC700898
[15] = Mycobacterium avium, M. avium (SMC#6)
[16] = Mycobacterium avium, M. avium (SMC#1637)
[17] = M. intracellulare (AMC#24), 23S rRNA A2058/A2059 G/A
[18] = M. intracellulare (SMC#104), 23S rRNA A2058/A2059 G/A
[19] = M. intracellulare (SMC#400), 23S rRNA A2058/A2059 C/A
[20] = M. intracellulare (SMC#414), 23S rRNA A2058/A2059 A/G
[21] = M. intracellulare (SMC#418), 23S rRNA A2058/A2059 G/A
[22] = Mycobacterium intracellulare, ATCC13950, M. intracellulare (ATCC 13950), reference strain
[23] = Mycobacterium intracellulare, M. intracellulare (SMC#8)
[24] = Mycobacterium intracellulare, M. intracellulare (SMC#12)
[25] = combination with CLR, synergism FICI ≤0.5, additive 0.5 < FICI ≤ 1
[26] = M. avium (SMC#1216), 23S rRNA A2058/A2059 C/A

Structure (SMILES)	drug-drug interaction with CLR [1]	drug-drug interaction with CLR [2]	intracellular activity in BMDMs infected with macrolide-resistant MAC clinical isolates [3]	MIC [4, 11] [µg/mL]	MIC [4, 12] [µg/mL]	MIC [4, 13] [µg/mL]	MIC ([5]; M. avium (SMC#7)) [µg/mL]	MIC ([5]; Mycobacterium avium) [µg/mL]	MIC [5, 14] [µg/mL]	MIC [5, 15] [µg/mL]	MIC [5, 16] [µg/mL]	MIC [6, 17] [µg/mL]	MIC [6, 18] [µg/mL]	MIC [6, 19] [µg/mL]	MIC [6, 20] [µg/mL]	MIC [6, 21] [µg/mL]	MIC ([7]; M. intracellulare (SMC#9)) [µg/mL]	MIC ([7]; M. intracellulare (SMC#831)) [µg/mL]	MIC ([7]; M. intracellulare (SMC#2087)) [µg/mL]	MIC ([7]; Mycobacterium intracellulare) [µg/mL]	also measured
COc1nc2ccc(Br)cc2cc1[C@@H](c1ccccc1)[C@@](O)(CCN(C)C)c1cccc2ccccc12 [bedaquiline, reference compound]	synergistic effects were not observed	synergistic effects were not observed																			
CC[C@H]1OC(=O)[C@H](C)[C@@H](O[C@H]2C[C@@](C)(OC)[C@@H](O)[C@H](C)O2)[C@H](C)[C@@H](O[C@@H]2O[C@H](C)C[C@H](N(C)C)[C@H]2O)[C@](C)(OC)C[C@@H](C)C(=O)[C@H](C)[C@@H](O)[C@]1(C)O [CLR, clarithromycin, reference compound]			resistance	> 64	> 64	> 64	0.5 (≈ 0.668 µM)	0.5 (≈ 0.668 µM)	0.5 (≈ 0.668 µM)	0.125 (≈ 0.167 µM)	0.125 (≈ 0.167 µM)	> 64	> 64	> 64	> 64	> 64	0.125 (≈ 0.167 µM)	0.125 (≈ 0.167 µM)	0.125 (≈ 0.167 µM)	0.125 (≈ 0.167 µM)	MIC ([4]; Mycobacterium avium, M. avium (SMC#417), 23S rRNA A2058/A2059 C/A): > 64 µg/mL; MIC ([4]; Mycobacterium avium, M. avium (SMC#1216), 23S rRNA A2058/A2059 C/A): > 64 µg/mL; MIC ([7]; M. intracellulare (SMC#699)): 0.125 µg/mL (≈ 0.167 µM); MIC [7, 22]: 0.25 µg/mL (≈ 0.334 µM); MIC [7, 23]: 0.25 µg/mL (≈ 0.334 µM); MIC [7, 24]: 0.25 µg/mL (≈ 0.334 µM)
C/C=C1\NC(=O)[C@H]([C@@H](C)O)NC(=O)c2csc(n2)-c2ccc(-c3nc(-c4nc(C(=O)NC5(C(=O)NCCCN6C(=O)CNC6=O)CC5)cs4)cs3)nc2-c2csc(n2)[C@H]([C@@H](C)O)NC(=O)c2csc(n2)[C@H](C(C)C)NC(=O)c2csc1n2 [AJ-039]	additive effect	additive effect	relatively little activity	0.5 (≈ 0.408 µM)	4 (≈ 3.26 µM)	2 (≈ 1.63 µM)				0.125 (≈ 0.102 µM)	0.125 (≈ 0.102 µM)	0.125 (≈ 0.102 µM)	0.125 (≈ 0.102 µM)	0.125 (≈ 0.102 µM)	0.125 (≈ 0.102 µM)	0.125 (≈ 0.102 µM)	0.125 (≈ 0.102 µM)	0.125 (≈ 0.102 µM)	0.125 (≈ 0.102 µM)	0.125 (≈ 0.102 µM)	solubility at 2 h [8]: 2.98 µg/mL (≈ 2.43 µM); Fold increase, HCl salt ([8]; solubility of HCl salt compared to MP2): ×360 fold; Fold increase, Free form [8]: ×43 fold; solubility [8]: 25.2 µg/mL; CFUs in BMDMs, drug alone ([9]; M. avium SMC#7 (Fig. 2C)): did not reduce CFUs; intracellular activity of combination with CLR compared to CLR alone ([9]; M. avium SMC#7, each drug 10 µg/mL, 72 h): not significant compared to that of CLR alone; FICI [1, 25]: 0.54; FICI [2, 25]: 0.56; MIC [4, 26]: 0.125 µg/mL (≈ 0.102 µM); MIC ([4]; Mycobacterium avium): 0.125 µg/mL (≈ 0.102 µM); MIC ([5]; Mycobacterium avium, ATCC700898, M. avium (ATCC 700898), reference strain): 0.125 µg/mL (≈ 0.102 µM); MIC ([5]; Mycobacterium avium, M. avium (CP000479.1), reference strain): 0.125 µg/mL (≈ 0.102 µM); MIC ([5]; Mycobacterium avium, M. avium (SMC#7)): 0.125 µg/mL (≈ 0.102 µM); MIC ([7]; M. intracellulare (SMC#8)): 0.125 µg/mL (≈ 0.102 µM); MIC ([7]; M. intracellulare (SMC#12)): 0.125 µg/mL (≈ 0.102 µM); MIC ([7]; M. intracellulare (SMC#699)): 0.125 µg/mL (≈ 0.102 µM); MIC ([7]; Mycobacterium intracellulare, ATCC13950): 0.125 µg/mL (≈ 0.102 µM)
C/C=C1\NC(=O)[C@H]([C@@H](C)O)NC(=O)c2csc(n2)-c2ccc(-c3nc(-c4nc(C(=O)NC5(C(=O)NCCN6CCN(C[C@@H](O)CO)CC6)CC5)cs4)cs3)nc2-c2csc(n2)[C@H]([C@@H](C)O)NC(=O)c2csc(n2)[C@H](C(C)C)NC(=O)c2csc1n2 [AJ-206]	strongest synergistic effect; also recorded: Synergistic effects	relatively weak but synergistic effect; also recorded: Synergistic effects	significant decrease in CFUs	0.5 (≈ 0.393 µM)	1 (≈ 0.786 µM)	1 (≈ 0.786 µM)	0.5 (≈ 0.393 µM)	0.5 (≈ 0.393 µM)	0.5 (≈ 0.393 µM)	0.125 (≈ 0.0982 µM)	0.125 (≈ 0.0982 µM)	0.125 (≈ 0.0982 µM)	0.125 (≈ 0.0982 µM)		0.125 (≈ 0.0982 µM)			0.125 (≈ 0.0982 µM)	0.125 (≈ 0.0982 µM)	0.125 (≈ 0.0982 µM)	solubility at 2 h [8]: 102 µg/mL (≈ 80.2 µM); Fold increase, Free form [8]: ×1,457 fold; solubility [8]: > 10000 µg/mL; intracellular growth of MAC in BMDMs ([3]; MAC-infected BMDMs, 72 h (Fig. 2)): remarkably inhibited the intracellular growth of MAC to a similar degree as CLR; also recorded: significantly reduced the number of MAC CFUs inside macrophages; intracellular bacterial growth in BMDMs [10]: notably inhibited intracellular bacterial growth; MIC [4, 26]: 0.125 µg/mL (≈ 0.0982 µM); MIC ([4]; Mycobacterium avium): 0.125 µg/mL (≈ 0.0982 µM); MIC [7, 22]: 0.5 µg/mL (≈ 0.393 µM); MIC ([7]; Mycobacterium intracellulare, M. intracellulare (SMC#7)): 0.25 µg/mL (≈ 0.196 µM); MIC [7, 23]: 0.5 µg/mL (≈ 0.393 µM); MIC [7, 24]: 0.5 µg/mL (≈ 0.393 µM); MIC ([7]; Mycobacterium intracellulare, M. intracellulare (SMC#699)): 0.5 µg/mL (≈ 0.393 µM)
